Test results as given in US20240002350A1, “PROTEIN AND LIPID THERAPEUTIC TARGETS” (UNIVERSITY OF PITTSBURGH-OF THE COMMONWEALTH SYSTEM OF …, priority 2020, published 2024).

Tested on: 15LOX/PEBP1
Assay: Potency of 15LOX/PEBP1 inhibitors with anti-ferroptotic effect (Table 1)
Format: cell-based
From the text: Development and testing of new compounds that inhibit 15LOX/PEBP1 complex activity. A combination of computational and experimental studies are used. […] Computer modeling considers specific features of organization of 15LOX/PEBP1 complexes and positioning of AA-PE as well as regio-specific oxygenation of AA-residues at 15th carbon. […] It has been shown that: i) binding interface of 15LOX in 15LOX/PEBP1 complex includes a helix on 15LOX (α2) and kinase binding epitope (D144, H145, R146) on PEBP1 (FIG. 8); and ii) interfacial interactions play a pivotal role in allosterically altering conformational dynamics of 15LOX in complex, and its substrate specificity. Analysis of change in access to catalytic site upon PEBP1 binding, using elastic network models indicates needed sites at 15LOX/PEBP1 binding interface. Dynamics simulations are also performed, for 15LOX alone and 15LOX/PEBP1 complex. An effective inhibitor, NCG-01, with in vivo activity has been indicated. Several other 15LOX/PEBP1 inhibitors with anti-ferroptotic effect (FIG. 9) have been identified. To test the effectiveness of compounds identified from the computational screen, RSL3 and mechanical stretch models with LDH and PI assays as a primary outcome are performed. The compounds that inhibit cell death by at least 50% are then evaluated for their effects on AA-PE and AA oxidation by 15LOX/PEBP1 complex and 15LOX alone, respectively, by LC-MS. Evaluation of the effect of compounds in suppressing AA-PE-OOH formation in cells upon proferroptotic stimuli is also performed.

Row | Compound | Potency
1 | FC(F)(F)c1ccc(-c2cn(-c3ccccc3)c(SCc3ccccc3)n2)cc1 [Compound 4, 2-(benzylthio)-1-phenyl-4-(4-(trifluoromethyl)phenyl)-1H-imidazole] | + (+ > 1 μM)
2 | FC(F)(F)c1ccc(CSc2nc(-c3ccc(C(F)(F)F)cc3)cn2-c2ccccc2)cc1 [Compound 6, 1-phenyl-2-((4-(trifluoromethyl)benzyl)thio)-4-(4-(trifluoromethyl)phenyl)-1H-imidazole] | + (+ > 1 μM)
3 | Fc1ccc(-n2cc(-c3ccccc3)nc2SCc2ccc(C(F)(F)F)cc2)cc1 [Compound 11, 1-(4-fluorophenyl)-4-phenyl-2-((4-(trifluoromethyl)benzyl)thio)-1H-imidazole] | + (+ > 1 μM)
4 | FC(F)(F)c1ccc(CSc2nc(-c3ccccc3)cn2-c2ccc(Cl)cc2)cc1 [Compound 13, 1-(4-chlorophenyl)-4-phenyl-2-((4-(trifluoromethyl)benzyl)thio)-1H-imidazole] | + (+ > 1 μM)
5 | Fc1ccccc1-n1cc(-c2ccccc2)nc1SCc1ccc(C(F)(F)F)cc1 [Compound 14, 1-(2-fluorophenyl)-4-phenyl-2-((4-(trifluoromethyl)benzyl)thio)-1H-imidazole] | + (+ > 1 μM)
6 | Cc1ccc(-n2cc(-c3ccccc3)nc2SCc2ccc(C(F)(F)F)cc2)cc1 [Compound 16, 4-phenyl-1-(p-tolyl)-2-((4-(trifluoromethyl)benzyl)thio)-1H-imidazole] | + (+ > 1 μM)
7 | FC(F)(F)c1ccc(CSc2nc(-c3ccccc3)cn2-c2cccc(Cl)c2)cc1 [Compound 17, 1-(3-chlorophenyl)-4-phenyl-2-((4-(trifluoromethyl)benzyl)thio)-1H-imidazole] | + (+ > 1 μM)
8 | FC(F)(F)c1ccc(CSc2nc(-c3ccccc3)cn2-c2ccccc2)cc1 [Compound 20, 1,4-diphenyl-2-((4-(trifluoromethyl)benzyl)thio)-1H-imidazole] | + (+ > 1 μM)
9 | Fc1cc(F)cc(-n2cc(-c3ccccc3)nc2SCc2ccc(C(F)(F)F)cc2)c1 [Compound 21, 1-(3,5-difluorophenyl)-4-phenyl-2-((4-(trifluoromethyl)benzyl)thio)-1H-imidazole] | dead
10 | Cc1cccc(-n2cc(-c3ccccc3)nc2SCc2ccc(C(F)(F)F)cc2)c1 [Compound 22, 4-phenyl-1-(m-tolyl)-2-((4-(trifluoromethyl)benzyl)thio)-1H-imidazole] | + (+ > 1 μM)
11 | C[S+](=O)([O-])c1cccc(-n2cc(-c3ccccc3)nc2SCc2ccc(C(F)(F)F)cc2)c1 [Compound 23, 1-(3-(methylsulfonyl)phenyl)-4-phenyl-2-((4-(trifluoromethyl)benzyl)thio)-1H-imidazole] | + (+ > 1 μM)
12 | FC(F)(F)c1ccc(CSc2nc(-c3ccccc3)cn2-c2cccc(Br)c2)cc1 [Compound 24, 1-(3-bromophenyl)-4-phenyl-2-((4-(trifluoromethyl)benzyl)thio)-1H-imidazole] | + (+ > 1 μM)
13 | FC(F)(F)c1ccc(CSc2nc(-c3ccccc3)cn2-c2cccc(C(F)(F)F)c2)cc1 [Compound 25, 4-phenyl-2-((4-(trifluoromethyl)benzyl)thio)-1-(3-(trifluoromethyl)phenyl)-1H-imidazole] | + (+ > 1 μM)
14 | Fc1cccc(-n2cc(-c3ccccc3)nc2SCc2ccc(C3(C(F)(F)F)N=N3)cc2)c1 [Compound 26, 1-(3-fluorophenyl)-4-phenyl-2-((4-(3-(trifluoromethyl)-3H-diazirin-3-yl)benzyl)thio)-1H-imidazole] | + (+ > 1 μM)
15 | Fc1cccc(-n2cc(-c3ccc(Br)cc3)nc2SCc2ccccc2)c1 [Compound 27, 2-(benzylthio)-4-(4-bromophenyl)-1-(3-fluorophenyl)-1H-imidazole] | + (+ > 1 μM)
16 | FC(F)Oc1cccc(-n2cc(-c3ccccc3)nc2SCc2ccc(C(F)(F)F)cc2)c1 [Compound 28, 1-(3-(difluoromethoxy)phenyl)-4-phenyl-2-((4-(trifluoromethyl)benzyl)thio)-1H-imidazole] | + (+ > 1 μM)
17 | COc1cccc(-n2cc(-c3ccccc3)nc2SCc2ccc(C(F)(F)F)cc2)c1 [Compound 29, 1-(3-methoxyphenyl)-4-phenyl-2-((4-(trifluoromethyl)benzyl)thio)-1H-imidazole] | + (+ > 1 μM)
18 | FC(F)(F)Oc1cccc(-n2cc(-c3ccccc3)nc2SCc2ccc(C(F)(F)F)cc2)c1 [Compound 30, 4-phenyl-1-(3-(trifluoromethoxy)phenyl)-2-((4-(trifluoromethyl)benzyl)thio)-1H-imidazole] | + (+ > 1 μM)
19 | O=C(Nc1nc(-c2ccccc2)cn1-c1cccc(F)c1)c1ccc(C(F)(F)F)cc1 [Compound 31, N-(1-(3-fluorophenyl)-4-phenyl-1H-imidazol-2-yl)-4-(trifluoromethyl)benzamide] | + (+ > 1 μM)

Row | Compound | Potency
20 | Fc1cccc(-n2cc(-c3ccccc3)nc2NCc2ccc(C(F)(F)F)cc2)c1 [Compound 32, 1-(3-fluorophenyl)-4-phenyl-N-(4-(trifluoromethyl)benzyl)-1H-imidazol-2-amine] | ++ (++ = 101-1000 nM)
21 | Cc1ccc(CSc2nc(-c3ccccc3)cn2-c2cccc(F)c2)cc1 [Compound 33, 1-(3-fluorophenyl)-2-((4-methylbenzyl)thio)-4-phenyl-1H-imidazole] | + (+ > 1 μM)
22 | Fc1cccc(-n2cc(-c3ccccc3)nc2SCc2ccc(Br)cc2)c1 [Compound 34, 2-((4-bromobenzyl)thio)-1-(3-fluorophenyl)-4-phenyl-1H-imidazole] | + (+ > 1 μM)
23 | Fc1cccc(-n2cc(-c3ccccc3)nc2SCc2cccc(C(F)(F)F)c2)c1 [Compound 35, 1-(3-fluorophenyl)-4-phenyl-2-((3-(trifluoromethyl)benzyl)thio)-1H-imidazole] | + (+ > 1 μM)
24 | Fc1cccc(-n2cc(-c3ccccc3)nc2SCc2ccc(OC(F)(F)F)cc2)c1 [Compound 36, 1-(3-fluorophenyl)-4-phenyl-2-((4-(trifluoromethoxy)benzyl)thio)-1H-imidazole] | + (+ > 1 μM)
25 | Fc1cccc(-n2cc(-c3ccccc3)nc2SCc2ccccc2)c1 [Compound 37, 2-(benzylthio)-1-(3-fluorophenyl)-4-phenyl-1H-imidazole] | + (+ > 1 μM)
26 | CC(Sc1nc(-c2ccccc2)cn1-c1cccc(F)c1)c1ccccc1 (stereo not shown) [Compound 38, 1-(3-fluorophenyl)-4-phenyl-2-((1-phenylethyl)thio)-1H-imidazole] | + (+ > 1 μM)
27 | Fc1cccc(-n2cc(-c3ccccc3)nc2SCc2cccc(Cl)c2)c1 [Compound 39, 2-((3-chlorobenzyl)thio)-1-(3-fluorophenyl)-4-phenyl-1H-imidazole] | + (+ > 1 μM)
28 | CS(=O)(=O)c1ccc(CSc2nc(-c3ccccc3)cn2-c2cccc(F)c2)cc1 [Compound 40, 1-(3-fluorophenyl)-2-((4-(methylsulfonyl)benzyl)thio)-4-phenyl-1H-imidazole] | + (+ > 1 μM)
29 | Fc1cccc(-n2cc(-c3ccccc3)nc2SCc2ccccc2C(F)(F)F)c1 [Compound 41, 1-(3-fluorophenyl)-4-phenyl-2-((2-(trifluoromethyl)benzyl)thio)-1H-imidazole] | + (+ > 1 μM)
30 | Fc1cccc(-n2cc(-c3ccccc3)nc2SCc2ccc(Cl)cc2)c1 [Compound 42, 2-((4-chlorobenzyl)thio)-1-(3-fluorophenyl)-4-phenyl-1H-imidazole] | + (+ > 1 μM)
31 | Cc1cccc(CSc2nc(-c3ccccc3)cn2-c2cccc(F)c2)c1 [Compound 43, 1-(3-fluorophenyl)-2-((3-methylbenzyl)thio)-4-phenyl-1H-imidazole] | + (+ > 1 μM)
32 | NS(=O)(=O)c1ccc(CSc2nc(-c3ccccc3)cn2-c2cccc(F)c2)cc1 [Compound 44, 4-(((1-(3-fluorophenyl)-4-phenyl-1H-imidazol-2-yl)thio)methyl)benzenesulfonamide] | + (+ > 1 μM)
33 | CC(C)(C)c1ccc(CSc2nc(-c3ccccc3)cn2-c2cccc(F)c2)cc1 [Compound 45, 2-((4-(tert-butyl)benzyl)thio)-1-(3-fluorophenyl)-4-phenyl-1H-imidazole] | + (+ > 1 μM)
34 | Fc1cccc(-n2cc(-c3ccccc3)nc2SCc2cccc(Br)c2)c1 [Compound 46, 2-((3-bromobenzyl)thio)-1-(3-fluorophenyl)-4-phenyl-1H-imidazole] | + (+ > 1 μM)
35 | CC(C)c1ccc(CSc2nc(-c3ccccc3)cn2-c2cccc(F)c2)cc1 [Compound 47, 1-(3-fluorophenyl)-2-((4-isopropylbenzyl)thio)-4-phenyl-1H-imidazole] | + (+ > 1 μM)
36 | Fc1cccc(-n2cc(-c3ccccc3)nc2SCc2ccc(C(F)(F)F)cc2F)c1 [Compound 48, 2-((2-fluoro-4-(trifluoromethyl)benzyl)thio)-1-(3-fluorophenyl)-4-phenyl-1H-imidazole] | + (+ > 1 μM)
37 | CC(=O)Nc1ccc(CSc2nc(-c3ccccc3)cn2-c2cccc(F)c2)cc1 [Compound 49, N-(4-(((1-(3-fluorophenyl)-4-phenyl-1H-imidazol-2-yl)thio)methyl)phenyl)acetamide] | + (+ > 1 μM)
